Measured values taken from patent US20250084095A1, “Aminopyrimidine Derivatives as Cyclin-Dependent Kinase Inhibitors” (Accutar Biotechnology Inc., priority 2023, published 2025).

How the values were obtained:
[1] = test system: 22RV1 cells; assay: Cell growth inhibition of 22RV1 cells (CellTiter-Glo); format: cell-based; conditions: Homo sapiens, 22Rv1, 120 h, 5 days, CellTiter-Glo, read-out: 22RV1 Cell Growh GI50
Experimental: For cell growth assay, 22RV1 (ATCC, CRL-2505) cells were seeded in 96-well plates at 1000 cells/well in 90 μl of RPMI1640 growth medium containing 20% FBS and 1% Penicillin Streptomycin, and then incubated at 37° C. overnight. The following day, the test compound was administered to the cells by using 1000× compound stock solution prepared in DMSO at various concentrations. 1000× compound stock solution was first diluted in culturing medium to 10×, then 10 uL compound medium was added to each well in the cell plates. After administration of the compound, the cells were then incubated at 37° C. for 5 days. Upon completion, the plates were equilibrated at room temperature for approximately 10 min. 100 μl of CellTiter-Glo® Reagent (Promega) was added to each well. The plates were then incubated at room temperature for 10 min and luminescence was recorded by EnSpire plate reader (PerkinElmer).
22RV1 cells were obtained from American Type Culture Collection (ATCC, CRL-2505). 22RV1 cells were seeded in 96-well plates at 1000 cells/well in 90 μL of RPMI1640 growth medium containing 10% FBS and 1% Penicillin Streptomycin, and then incubated at 37° C. overnight. The following day, the test compound was administered to the cells by using 1000× compound stock solution prepared in DMSO at various concentrations. […], then 10 uL compound medium was added to each well in the cell plates. After administration of the compound, the cells were then incubated at […] for 5 days. Upon completion, the plates were equilibrated at room temperature for approximately 10 minutes. 100 μL of CellTiter-Glo® Reagent (Promega) was added to each well. The plates were then incubated at room temperature for 10 minutes and luminescence was recorded by EnSpire plate reader (PerkinElmer).

[2] = test system: Phospho-Rb (Ser807/811) in MCF7 cells; assay: Phospho-Rb expression inhibition in MCF7 cells quantified by in cell Western; format: cell-based, human; conditions: Homo sapiens, MCF7, 24 h, 24 hours, in cell Western, read-out: MCF7 pRb IC50
Experimental: MCF7 cells were obtained from American Type Culture Collection (ATCC, HTB-22). MCF7 cells were plated in 96-well plates (VWR #10062-900, or Coming #3904) in 90 μL culture medium at a density of 20,000 cells/well in the DMEM growth medium containing 10%/FBS and 1% Penicillin Streptomycin, and then incubated at 37° C. overnight. The following day, the test compound was administered to the cells by using 1000× compound stock solution prepared in DMSO at various concentrations. 1000× compound stock solution was first diluted in culturing medium to 10×, then 10 μL compound medium was added to each well in the cell plates. After administration of the compound, the cells were then incubated at 37° C. for 24 h. Upon completion, the cells were washed with PBS briefly. 150 μL/well of 4% formaldehyde was added and the plates were incubated at room temperature for 20 min. The cells were washed with PBS briefly, and permeabilized with 150 µL/well of ice cold 100% methanol for 10 min. The cells were washed with PBS briefly and blocked with 100 µL/well LI-COR blocking buffer for 1 h at room temperature with gentle shaking. The cells were incubated overnight at 4° C. with 50 μL primary antibody rabbit anti-Phospho-Rb (Ser807/811) (1: 500, Cell Signaling, #8516) and anti-Rb (1:200, Santa Cruz, sc-73598) diluted in Intercept Blocking Buffer (LI-COR, #927-60001) containing 0.1% Tween 20. The next day, the cells were washed with 200 μL PBS containing 0.1% Tween 20, 5×5 mins at room temperature with gentle shaking, and incubated with 50 μL secondary antibody, IRDye® 800CW Goat anti-Rabbit IgG (1:1000, LI-COR, #926-32211) and FRDye® 680RD Goat anti-Mouse IgG (1:1000, LI-COR, #926-68070), in LI-COR […] blocking buffer with 0.2% Tween 20 for 1 h at room temperature with gentle shaking. The cells were washed with 200 μL PBS containing 0.1% Tween 20, 5×5 min at room temperature with gentle shaking. The cells were washed with PBS for 5 mins. 100 μL fresh PBS was added to each well and the plates were imaged on a LI-COR Odyssey CLX plate reader.
MCF7 cells were obtained from American Type Culture Collection (ATCC, HTB-22). SW1573-CDK6 KO and SW1573-CDK4 KO cells were generated by the CRISPR-Cas9 technology. All cells were plated in 96-well plates (VWR #10062-900, or Corning #3904) in 90 uL culture medium at a density of 20,000 cells/well in the respective growth medium containing 10% FBS and 1% Penicillin Streptomycin, and then incubated at 37° C. overnight. The following day, the test compound was administered to the cells by using 1000× compound stock solution prepared in DMSO at various concentrations. 1000× compound stock solution was first diluted in culturing medium to 10×, then 10 uL compound medium was added to each well in the cell plates. After administration of the compound, the cells were then incubated at 37° C. for 24 hours. Upon completion, the cells were washed with PBS briefly. 150 uL/well of 4% formaldehyde was added and the plates were incubated at room temperature for 20 mins. The cells were washed with PBS briefly, and permeabilized with 150 uL/well of ice cold 100% methanol for 10 mins. The cells were washed with PBS briefly and blocked with 100 uL/well LI-COR blocking buffer for 1 hr at room temperature with gentle shaking. The cells were incubated overnight at 4° C. with 50 uL primary antibody rabbit anti-Phospho-Rb (Ser807/811) (1: 500, Cell Signaling, #8516) and anti-Rb (1:200, Santa Cruz, sc-73598) diluted in Intercept Blocking Buffer (LI-COR, #927-60001) containing 0.1% Tween 20. The next day, the cells were washed with 200 uL PBS containing 0.1% Tween 20, 5×5 mins at room temperature with gentle shaking, and incubated with 50 uL secondary antibody, IRDye® 800CW Goat anti-Rabbit IgG (1:1000, LI-COR, #926-32211) and IRDye®680RD Goat anti-Mouse IgG (1:1000, LI-COR, #926-68070), in LI-COR blocking buffer with 0.2% Tween 20 for 1 hr at room temperature with gentle shaking. […]

Row | SMILES | GI50 [1] [nM] | IC50 [2] [nM]
1 | Cc1c(-c2nc(N[C@@H]3C[C@H]4CO[C@H](O4)[C@H]3O)ncc2F)sc2cc(CN3[C@@H](C)COC[C@@H]3C)n(C)c(=O)c12 [Compound 215, 6-(((3S,5S)-3,5-dimethylmorpholino)methyl)-2-(5-fluoro-2-(((1S,3R,4S,5R)-4-hydroxy-6,8-dioxabicyclo[3.2.1]octan-3-yl)amino)pyrimidin-4-yl)-3,5-dimethylthieno[3,2-c]pyridin-4(5H)-one] | 450 to 3000 | 40 to 150
2 | CC(C)n1c(C2CC(O)C2)nc2c(F)cc(-c3nc(N[C@@H]4C[C@H]5CO[C@H](O5)[C@H]4O)ncc3Cl)cc21 (stereo partly drawn) [Compound 244, (1S,3R,4S,5R)-3-((5-chloro-4-(4-fluoro-2-((1s,3S)-3-hydroxycyclobutyl)-1-isopropyl-1H-benzo[d]imidazol-6-yl)pyrimidin-2-yl)amino)-6,8-dioxabicyclo[3.2.1]octan-4-ol] | 120 to 450 | 40 to 150
3 | CC(C)(O)c1cnc2c(F)cc(-c3nc(N[C@@H]4C[C@H]5CO[C@H](O5)[C@H]4O)ncc3F)cc2c1 [Compound 254, (1S,3R,4S,5R)-3-((5-fluoro-4-(8-fluoro-3-(2-hydroxypropan-2-yl)quinolin-6-yl)pyrimidin-2-yl)amino)-6,8-dioxabicyclo[3.2.1]octan-4-ol] | 120 to 450 | 150 to 1000
4 | CC(C)n1c(C(F)(F)CO)nc2c(F)cc(-c3nc(N[C@@H]4C[C@H]5CO[C@H](O5)[C@H]4O)ncc3Cl)cc21 [Compound 176, (1S,3R,4S,5R)-3-((5-chloro-4-(2-(1,1-difluoro-2-hydroxyethyl)-4-fluoro-1-isopropyl-1H-benzo[d]imidazol-6-yl)pyrimidin-2-yl)amino)-6,8-dioxabicyclo[3.2.1]octan-4-ol] | 450 to 3000 | 150 to 1000
5 | Cc1c(C(=O)N2CCOCC2)n(C(C)C)c2cc(-c3nc(N[C@@H]4C[C@H]5CO[C@H](O5)[C@H]4O)ncc3Cl)ccc2c1=O [Compound 214, 7-(5-chloro-2-(((1S,3R,4S,5R)-4-hydroxy-6,8-dioxabicyclo[3.2.1]octan-3-yl)amino)pyrimidin-4-yl)-1-isopropyl-3-methyl-2-(morpholine-4-carbonyl)quinolin-4(1H)-one] | > 3000 | > 1000
6 | C[C@H]1COc2c(-c3nc(N[C@@H]4C[C@H]5CO[C@H](O5)[C@H]4O)ncc3Cl)cc(F)c3nc(C(C)(C)O)n1c23 [Compound 37, (1S,3R,4S,5R)-3-((5-chloro-4-((S)-8-fluoro-2-(2-hydroxypropan-2-yl)-3-methyl-3,4-dihydro-5-oxa-1,2a-diazaacenaphthylen-6-yl)pyrimidin-2-yl)amino)-6,8-dioxabicyclo[3.2.1]octan-4-ol] | 120 to 450 | 40 to 150
7 | Cc1c(CN2CC[C@H](O)C2)n(C(C)C)c2cc(-c3nc(N[C@@H]4C[C@H]5CO[C@H](O5)[C@H]4O)ncc3F)ccc2c1=O [Compound 207, 7-(5-fluoro-2-(((1S,3R,4S,5R)-4-hydroxy-6,8-dioxabicyclo[3.2.1]octan-3-yl)amino)pyrimidin-4-yl)-2-(((S)-3-hydroxypyrrolidin-1-yl)methyl)-1-isopropyl-3-methylquinolin-4(1H)-one] | ≤ 120 | 40 to 150
8 | CC(C)n1c(C2(O)COC2)nc2c(F)cc(-c3nc(N[C@@H]4C[C@H]5CO[C@H](O5)[C@H]4O)ncc3Cl)cc21 [Compound 172, (1S,3R,4S,5R)-3-((5-chloro-4-(4-fluoro-2-(3-hydroxyoxetan-3-yl)-1-isopropyl-1H-benzo[d]imidazol-6-yl)pyrimidin-2-yl)amino)-6,8-dioxabicyclo[3.2.1]octan-4-ol] | 120 to 450 | 40 to 150
9 | Cc1c(-c2nc(N[C@@H]3C[C@H]4CO[C@H](O4)[C@H]3O)ncc2F)sc2c(C(C)C)cnnc12 [Compound 266, (1S,3R,4S,5R)-3-((5-fluoro-4-(4-isopropyl-7-methylthieno[3,2-c]pyridazin-6-yl)pyrimidin-2-yl)amino)-6,8-dioxabicyclo[3.2.1]octan-4-ol] | ≤ 120 | ≤ 40
10 | Cc1c(C(C)(C)O)nnc2c(F)cc(-c3nc(N[C@@H]4C[C@H]5CO[C@H](O5)[C@H]4O)ncc3Cl)cc12 [Compound 279, (1S,3R,4S,5R)-3-((5-chloro-4-(8-fluoro-3-(2-hydroxypropan-2-yl)-4-methylcinnolin-6-yl)pyrimidin-2-yl)amino)-6,8-dioxabicyclo[3.2.1]octan-4-ol] | ≤ 120 | 150 to 1000
11 | C[C@H]1COC[C@H](C)N1Cc1cnc2c(F)cc(-c3nc(N[C@@H]4C[C@H]5CO[C@H](O5)[C@H]4O)ncc3Cl)cc2c1 [Compound 262, (1S,3R,4S,5R)-3-((5-chloro-4-(3-(((3S,5S)-3,5-dimethylmorpholino)methyl)-8-fluoroquinolin-6-yl)pyrimidin-2-yl)amino)-6,8-dioxabicyclo[3.2.1]octan-4-ol] | 450 to 3000 | 150 to 1000
12 | COC(=O)N1CC[C@@H](c2nc3c(F)cc(-c4nc(N[C@@H]5C[C@H]6CO[C@H](O6)[C@H]5O)ncc4Cl)cc3n2C(C)C)C1 [Compound 4, methyl (R)-3-(6-(5-chloro-2-(((1S,3R,4S,5R)-4-hydroxy-6,8-dioxabicyclo[3.2.1]octan-3-yl)amino)pyrimidin-4-yl)-4-fluoro-1-isopropyl-1H-benzo[d]imidazol-2-yl)pyrrolidine-1-carboxylate] | 120 to 450 | 40 to 150
13 | Cc1c(C(C)(C)O)cnc2c(Cl)cc(-c3nc(N[C@@H]4C[C@H]5CO[C@H](O5)[C@H]4O)ncc3Cl)cc12 [Compound 284, (1S,3R,4S,5R)-3-((5-chloro-4-(8-chloro-3-(2-hydroxypropan-2-yl)-4-methylquinolin-6-yl)pyrimidin-2-yl)amino)-6,8-dioxabicyclo[3.2.1]octan-4-ol] | ≤ 120 | ≤ 40
